Article PMC4503980 (Scientific Reports, 2015)

Key:
PDZ2 of PSD-95 = molecular target: T1, PDZ2 of PSD-95 (Homo sapiens, UniProt P78352); assay: FP inhibition assay, Cy5-GluN2B probe / PDZ2; format: binding; settings: concentrations reaching 500–1800 μM; Cy5-GluN2B 50 nM; [PDZ2] = 6 μM
T1 construct: PDZ2 (155-249); made in house; host or cells: E. coli BL21-DE3 pLysS
Method: Fluorescent probes were made by attaching fluorophores (Cy5) to C-terminal 10- or 11-mer (C10 or C11) peptide ligands representing canonical and natural occurring protein partners (Supplementary Table S1). […] (Fig. 2).
(b) Cy5-GluN2B as probe (50 nM), [PDZ2] = 6 μM. (c) Cy5-CRIPT as probe (50 nM), [PDZ3] = 5 μM. […] Error bars indicate SEM based on three individual measurements. […]
Incubation time was 10–15 minutes (room temperature), and the assay was performed in a 1 × TBS buffer (150 mM NaCl, 10 mM Tris, pH 7.4) using black flat-bottom 384-well plates (Corning Life Sciences, NY) and a Safire2 plate-reader (Tecan, Männedorf, Switzerland). […] TAMRA- and Cy5-probes were measured at excitation/emission values of 530/585 nm (bandwidth = 20 nm) and 635/670 nm (bandwidth = 15 nm), respectively. […]
FP values were fitted to the general equation: Y = Bottom + (Top–Bottom)/[1 + (10^(X-logIC50)*HillSlope)], where X is the logarithmic value of peptide/compound concentration, and Y is the experimental FP values. Competitive inhibition constants, Ki values, were calculated from the IC50 values to quantify affinities between test substance and protein[42]. […]

two mice pain models = tested on: two mice pain models; design: method as in PMID 19732061; settings: cited from earlier work
[1] = molecular target: T2, α1-Syntrophin-PDZ/nNOS-PDZ interaction (Homo sapiens, UniProt P29475); assay: 'indirect' FP assay, Cy5-Sapk3 / α-Syntrophin-PDZ / nNOS-PDZ; format: binding; settings: up to 500–600 μM; Cy5-Sapk3 5 nM / α-Syntrophin-PDZ 14 μM / nNOS-PDZ 10 μM
T2 construct: nNOS-PDZ (12–130, human); α-Syntrophin-PDZ (82–200, human); made in house; host or cells: E. coli
Description: First we tested a series of 23 fluorescent-labelled C-terminal peptide ligands (Supplementary Table S1) derived from PDZ-interacting proteins in order to find a probe with good activity towards the PSD-95 PDZ domains and no or little activity against nNOS-PDZ (Supplementary Fig. S1). The Cnskr2 probe fulfilled these selectivity criteria and was used to generate saturation curves with PDZ2 and PDZ1-2 of PSD-95 (Fig. 4a). […] Next, fixed concentrations of TAMRA-Cnskr2, PSD-95-PDZ2/1-2, and nNOS-PDZ were applied, corresponding to the conditions at IC50 of the nNOS-PDZ inhibition curve (Fig. 4b) where sensitivity of the assay is greatest. […] Here, we used the Sapk3-peptide as it has the desired high affinity to α1-Syntrophin-PDZ and low affinity to nNOS-PDZ (Supplementary Fig. S1).
The minor increases in mP at high concentrations, 260-2900 μM, were due to fluorescence artefacts.
Similar, this assay was established with Syntrophin-PDZ and Sapk3 as probe (Fig. 4d).
In all cases, the DMSO effect on the assay was tested and found negligible.

PSD-95/cypin-interaction = tested on: PSD-95/cypin-interaction; design: method as in PMID 19732061; settings: cited from earlier work
[2] = molecular target: T3, TAMRA-nNOS/PSD-95-PDZ1-2 interaction (Homo sapiens, UniProt P29475+P78352, V36C); assay: 'direct' FP assay, TAMRA-nNOS / PDZ1-2 (saturation and inhibition); format: binding
T3 construct: nNOS-PDZ (12–130, human); PDZ1-2 (61-249); made in house; host or cells: E. coli
Description: The assay was established by creating a fluorescent version of nNOS-PDZ by TAMRA-labelling nNOS-PDZ via an introduced cysteine residue (V36C).
nNOS-PDZ (12–130, human) and α-Syntrophin-PDZ (82–200, human), both comprising an N-terminal His-tag/FXa-site sequence ([sequence]), were likewise expressed in E. coli and purified by HisTrap chromatography followed by gel-filtration as described in details previously[19]. To make the TAMRA-labelled nNOS-PDZ, mutant nNOS-PDZ (V36C) protein was generated by standard site-directed mutagenesis and characterized as described previously[19]. […]

nNOS/PSD-95 interaction [3] = tested on: nNOS/PSD-95 interaction; design: method as in PMID 19732061; settings: cited from earlier work
[4] = tested on: 34 targets in a panel of receptors, ion channels, and transporters; design: method as in PMID 19732061; settings: cited from earlier work
[5] = tested on: NMDA-induced 3′,5′-cyclic guanosine monophosphate (cGMP) production; design: method as in PMID 19732061; settings: hippocampal cultures; cited from earlier work
[6] = tested on: NMDA receptor-mediated NO synthesis; design: method as in PMID 21102461; settings: cited from earlier work
PSD-95/GluN2B = tested on: PSD-95/GluN2B; design: method as in PMID 21102461; settings: cited from earlier work
NMDA receptor = tested on: NMDA receptor; design: method as in PMID 21102461; settings: cited from earlier work
[7] = tested on: animal ischemic stroke models; design: method as in PMID 21102461; settings: not when the nNOS gene was knocked out; cited from earlier work
nNOS/CAPON = tested on: nNOS/CAPON; design: method as in PMID 21102461; settings: cited from earlier work
neurons = tested on: neurons; design: method as in PMID 21102461; settings: cited from earlier work
nNOS/PSD-95 interaction [8] = tested on: nNOS/PSD-95 interaction; design: method as in PMID 21102461; settings: extracts from glutamate- or ischemia-induced cultured neurons and cortical brain; cited from earlier work
PSD-95/SynGAP = tested on: PSD-95/SynGAP; design: method as in PMID 21102461; settings: cited from earlier work

T3 sequence (P29475 12-130 V36C): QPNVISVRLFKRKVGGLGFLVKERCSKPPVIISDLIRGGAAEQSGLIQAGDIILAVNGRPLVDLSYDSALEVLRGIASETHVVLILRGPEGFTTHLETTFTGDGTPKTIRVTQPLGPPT
T3 sequence (P78352 61-249): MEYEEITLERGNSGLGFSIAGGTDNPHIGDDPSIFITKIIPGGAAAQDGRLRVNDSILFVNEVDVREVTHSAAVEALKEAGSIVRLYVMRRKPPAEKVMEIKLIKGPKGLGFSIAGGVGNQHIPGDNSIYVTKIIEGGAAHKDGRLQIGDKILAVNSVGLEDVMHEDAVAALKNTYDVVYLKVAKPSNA
T1 sequence (P78352 155-249): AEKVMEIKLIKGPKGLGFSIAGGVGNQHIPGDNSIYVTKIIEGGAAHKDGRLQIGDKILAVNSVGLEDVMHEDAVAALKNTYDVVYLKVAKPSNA
T2 sequence (P29475 12-130): as the sequence (P29475 12-130 V36C) above, with C25V counted along it

Compound: Oc1c(Cl)cc(Cl)cc1CNc1ccc2[nH]nnc2c1 [IC87201, 2-((1H-Benzo[d][1–3]triazol-5-ylamino)methyl)-4-6-dichlorophenol]
- inhibition of probe-PDZ interaction (PDZ2) (PDZ2 of PSD-95): did not inhibit
- analgesic properties (two mice pain models): analgesic properties
- activity in indirect FP assay (α1-Syntrophin-PDZ/nNOS-PDZ) [1]: no activity
- effect on PSD-95/cypin-interaction (PSD-95/cypin-interaction): did not affect
- inhibition of TAMRA-nNOS/PDZ1-2 interaction ([2]; up to 7.3 μM (fluorescence artefacts above), data not shown): no inhibition
- disruption of nNOS/PSD-95 interaction in vitro (nNOS/PSD-95 interaction [3]): disrupt
- effect on 34 targets in a panel of receptors, ion channels, and transporters [4]: did not affect
- NMDA-induced cGMP production [5]: blocked

Compound: O=C(O)c1ccc(NCc2cc(Cl)cc(Cl)c2O)cc1O [ZL006, 4-((3,5-Dichloro-2-hydroxybenzyl)amino)-2-hydroxybenzoic acid]
- inhibition of probe-PDZ interaction (PDZ2) (PDZ2 of PSD-95): did not inhibit
- NMDA receptor-mediated NO synthesis [6]: inhibited
- inhibition of PSD-95/GluN2B (PSD-95/GluN2B): not inhibited
- effect on NMDA receptor function (ion flux) (NMDA receptor): did not affect
- neuroprotective properties in animal ischemic stroke models [7]: robust neuroprotective properties
- activity in indirect FP assay (α1-Syntrophin-PDZ/nNOS-PDZ) [1]: no activity
- inhibition of nNOS/CAPON (nNOS/CAPON): not inhibited
- neuroprotective properties in neurons (neurons): robust neuroprotective properties
- inhibition of TAMRA-nNOS/PDZ1-2 interaction ([2]; tested at up to 1200 μM, TAMRA-nNOS 5 nM, PDZ1-2 0.3 μM): no activity
- inhibition of nNOS/PSD-95 interaction (co-immunoprecipitation) (nNOS/PSD-95 interaction [8]): inhibit
- inhibition of PSD-95/SynGAP (PSD-95/SynGAP): not inhibited
